Experimental data: patent publication US20190142974A1, “METHODS AND COMPOSITIONS FOR ATTENUATING ANTI-VIRAL TRANSFER VECTOR IGM RESPONSES” (Selecta Biosciences, Inc., priority 2017, published 2019)

Test system: AAV
Experiment: Serum AAV IgG, ELISA
Type: in vivo, C57BL/6 female mice
Conditions: Example 12, FIG. 24B
Method: Same serum samples from Example 3 were also tested for AAV IgG measured by ELISA along the same lines as IgM with the exception of goat anti-mouse IgG specific-HRP being used.

For `C=CC(=O)N1CCC[C@@H](n2nc(-c3ccc(Oc4ccccc4)cc3)c3c(N)ncnc32)C1` [ibrutinib], the “animals converting to AAV IgG-positive by d22” value was 10/10.
